Laboratory results: US20050101542A1, “Combination therapy for controlling appetites” (Regents of the University of California, priority 2002, published 2005)

How the values were obtained:
[1] = Acute food intake in 24-h food-deprived rats, i.p. dosing; format: in vivo, rat; settings: 24-h food-deprived rats, i.p.
Procedure: Feeding experiments. Acute experiments. Food intake was measured in 24-h food-deprived rats (Navarro, et al., J. Neurochem., 67:1982-1991 (1996)), administering drugs 15 min before food presentation. Subchronic experiments. Ad libitum fed rats received vehicle injections for three days. On day four, the animals were divided in two equal groups and gave them daily injections of vehicle or OEA (5 mg per kg at 1900 h) for 7 consecutive days, while measuring body weight, food intake and water intake.
The effects of systemically administered OEA or an OEA-like compound or OEA-like modulator on food intake in rats can be assessed using a 24 h fast. […] To define the selectivity of this response, various OEA analogs were evaluated for their ability to produce hypophagia.

[2] = rat, in vivo
Procedure: (§1) Drugs were administered by i.p. injection 15 min prior to food presentation in a volume of 1 ml/kg. For i.c.v. administration the obturator was removed from the guide cannula and an 8-mm injector (30-gauge stainless steel tubing) that was connected to 70 cm of calibrated polyethylene-10 tubing was lowered into the ventricle. The tubing was then raised until flow began and 5 μl of drug solution were infused over a 30-60 s period. The injector was left in the guide cannula for additional 30 s and then removed. The stylet was immediately replaced. Animals were tested 5 min after injections. The i.c.v. cannula placements were evaluated after each experiment by dye injection. Only those rats with proper i.c.v. placements were included in the data analysis.
(§2) The animals were then food-deprived for 24 h, with free access to water. 15 min after drug administration, the animals were returned to their home cage, where a can with a measured amount of food (usually 30-40 g) a bottle containing 250 ml of fresh water were placed. Food pellets and food spillage were weighed at 60,120 and 240 min after starting the test, and the amount of food eaten was recorded. At the end of the test, the amount of water consumed was also measured. For partial satiation of animals, 24 h food-deprived rats were allowed to eat from the can during 1 h. The can was retired and intake was recorded. 15 min after drug injections, the food was again presented, and the amount consumed was recorded hourly for the following 4 h.

[3] = Food intake studies in food-deprived or partially satiated rats (i.p. or i.c.v.), Example 8; settings: for food intake in partially satiated rats, systemic (i.p.) administration: 24 h food-deprived, allowed to eat 60 min before drug
Procedure: as §1, §2

human PPARα = target: T1, human PPARα (Homo sapiens, UniProt Q07869); experiment: GAL4 chimeric receptor transactivation assay in HeLa cells, PPARα; format: cell-based; settings: HeLa transactivation assay
T1 construct: expressed in transfected cells; host or cells: HeLa (clonal reporter line HLR, stably transfected with pFA-PPARα)
T1 sequence (Q07869 239-466 limits assumed): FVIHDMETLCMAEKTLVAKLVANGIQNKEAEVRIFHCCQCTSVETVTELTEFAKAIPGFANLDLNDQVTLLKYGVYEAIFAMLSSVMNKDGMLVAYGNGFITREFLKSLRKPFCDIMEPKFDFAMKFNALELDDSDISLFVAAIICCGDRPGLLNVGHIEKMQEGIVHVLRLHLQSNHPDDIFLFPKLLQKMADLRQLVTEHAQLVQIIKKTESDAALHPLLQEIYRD
Procedure: Eighteen hours following transfection, the culture media was replaced with supplemented DMEM containing hygromycin (100 μg-ml^−1, Calbiochem). After 4 weeks in culture, the surviving clones were isolated and analyzed by luciferase assay. […] The cells were cultured in supplemented DMEM containing hygromycin and G418. For transactivation assays, cells were seeded in 6-well plates (50,000 cells per well) and incubated for 7 hours in supplemented DMEM containing hygromycin and G418, plus appropriate concentrations of test compounds. Dual-luciferase reporter assay system (Promega) and an MLX Microtiter® plate luminometer (Dynex) were used to determine luciferase activity in cell lysates.

[4] = Capsaicin sensory deafferentation and feeding, Example 8; format: in vivo, rat; settings: CCK-8 10 μg/kg, CP 93129 1, WIN 55,212-2 2, anandamide 2, SR141716A 3 mg/kg, i.p.
Procedure: Capsaicin was administered subcutaneously (12.5 mg/ml, Kaneko, et al., Am. J. Physiol., 275:G1056-G1062 (1998)) in rats anesthetized with ethyl ether. The total dose of capsaicin (125 mg/kg) was divided into three injections (25 mg/kg in the morning and 50 mg/kg in the afternoon of the first day, 50 mg/kg on the 2nd day). Control rats received vehicle injections. […] Water intake (in ml/4 hr) was: vehicle 13.6±1.4; capsaicin rats 24.0±1.9, P<0.01 (n=12).
The can was retired and intake was recorded.

Soleus muscle = experiment: [14C]oleate oxidation to CO2 in soleus muscle; format: cell-based, rat
Excerpt: This example illustrates the effect of OEA on fat metabolism and methods for studying the same. Oleoylethanolamide (OEA) decreases body weight not only by suppressing appetite, but also by possibly enhancing body fat catabolism. The effects of OEA on fatty acid oxidation in major body-fat burning tissues (soleus muscle, liver, cultured cardiac myocytes and astrocytes) was examined. […] In addition, OEA induces a significant mobilization of triacylglycerol stores from primary white adipose tissue cells. Table 4 details the methods and effects of OEA on fatty acid oxidation in these cells. Structure-activity relationship experiments provide evidence that the effect of OEA on skeletal muscle fatty acid oxidation is specific (FIG. 8).

CCCCC/C=C\C/C=C\C/C=C\C/C=C\CCCC(=O)NCCO [anandamide, arachidonylethanolamide]
food intake (hypophagia) [1]: no effect
motor effect at the highest central dose [2]: motor impairment
food intake in partially satiated rats, systemic (i.p.) administration [3]: significant and prolonged hyperphagia
food intake in partially satiated rats, systemic (i.p.) administration ([3]; listed as Anandamide): elicited hyperphagia
food intake in 24 h food-deprived rats, systemic (i.p.) administration ([3]; anandamide or WIN 55,212-2 0.1-2 mg/kg): no effect
food intake after central (i.c.v.) administration [3]: no effect on feeding
food intake after central (i.c.v.) administration ([3]; listed as Anandamide): no effect
PPARα activation (human PPARα): ineffective
effect of capsaicin treatment on the drug's feeding response [4]: loss of the hyperphagic effects
mimicry of the OEA effect on skeletal muscle fatty acid oxidation (Soleus muscle): not
